This passage reports IC50 results from patent publication US7704995B2 (Exelixis, Inc., priority 2003, dated 2010).

Broadly, the IC50 is the midpoint of a concentration-inhibition curve.

For the assay, the target named is T1, Chk1 (Homo sapiens, UniProt O14757).
T1 construct: purchased Upstate Biotechnology
T1 sequence (O14757 1-476): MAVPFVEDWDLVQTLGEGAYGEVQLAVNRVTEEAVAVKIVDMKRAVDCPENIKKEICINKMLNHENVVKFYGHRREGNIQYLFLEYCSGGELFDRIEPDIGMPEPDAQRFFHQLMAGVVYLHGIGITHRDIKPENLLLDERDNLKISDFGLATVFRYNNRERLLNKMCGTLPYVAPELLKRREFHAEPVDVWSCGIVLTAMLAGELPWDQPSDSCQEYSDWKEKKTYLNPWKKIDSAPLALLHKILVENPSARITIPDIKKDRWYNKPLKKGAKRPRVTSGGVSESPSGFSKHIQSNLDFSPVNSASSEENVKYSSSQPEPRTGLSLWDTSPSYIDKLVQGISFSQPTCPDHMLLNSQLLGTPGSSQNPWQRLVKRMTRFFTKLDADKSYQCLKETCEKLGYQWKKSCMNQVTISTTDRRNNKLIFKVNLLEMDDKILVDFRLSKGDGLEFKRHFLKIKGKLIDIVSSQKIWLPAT
Put plainly: Chk1 kinase assay: incorporation of γ-33P ATP into immobilized myelin basic protein. Type of assay: biochemical. The note with it: read-out: Chk1 IC50. As to the method: Chk1 and Chk2 assays were performed by measuring incorporation of γ-^33P ATP into immobilized myelin basic protein (MBP). High binding white 384 well plates (Greiner) were coated with MBP (Sigma #M-1891) by incubation of 60 ul/well of 20 μg/ml MBP in Tris-buffered saline (TBS; 50 mM Tris pH 8.0, 138 mM NaCl, 2.7 mM KCl) for 24 hours at 4° C. Plates were washed 3× with 100 μl TBS. Kinase reactions were carried out in a total volume of 34 μl in kinase buffer (5 mM Hepes pH 7.6, 15 mM NaCl, 0.01% bovine gamma globulin (Sigma #I-5506), 10 mM MgCl2, 1 mM DTT, 0.02% TritonX-100). Compound dilutions were performed in DMSO and added to assay wells to a final DMSO concentration of 1%. Each data point was measured in duplicate, and at least two duplicate assays were performed for each individual compound determination. Chk1 and Chk2 enzymes (Upstate Biotechnology) were added to final concentrations of 10 nM (Chk1) or 20 nM (Chk2). A mixture of unlabeled ATP and γ-^33P ATP was added to start the reaction (2×10^6 cpm of γ-^33P ATP per well (3000 Ci/mmole) and either 10 μM or 30 μM unlabeled ATP (for Chk1 and Chk2 assays respectively). The reaction was carried out for 1 hour at room temperature with shaking. Plates were washed 7× with TBS, followed by the addition of 50 μl/well scintillation fluid (Wallac). Plates were read using a Wallac Trilux counter. This is only one format of such assays, various other formats are possible, as known to those skilled in the art.
The above assay procedure can be used to determine the IC50 for inhibition and/or the inhibition constant Ki. The IC50 is defined as the concentration of compound required to reduce the enzyme activity by 50% under the conditions of the assay. […] The Ki for a compound may be determined from the IC50 based on three assumptions. First, only one compound molecule binds to the enzyme and there is no cooperativity. […] Third, the enzymatic rate of the enzyme-inhibitor complex is zero. The rate (i.e., compound concentration) data are fitted to the equation: […]
As to `CNC(=O)c1nc(-c2cccc(C(=O)NCc3ccccn3)c2)cnc1N` [Example 121, 3-amino-N-methyl-6-(3-{[(pyridin-2-ylmethyl)amino]carbonyl}phenyl)pyrazine-2-carboxamide], the IC50 lay within 0.05 to 1 µM.

Take `CNC(=O)c1nc(-c2cccc(C(=O)NCc3cccnc3)c2)cnc1N` [Example 122, 3-amino-N-methyl-6-(3-{[(pyridin-3-ylmethyl)amino]carbonyl}phenyl)pyrazine-2-carboxamide]: the concentration for half-maximal inhibition (IC50) lay in the range of 0.05 to 1 µM.

In the case of `CNC(=O)c1nc(-c2cccc(C(=O)NCc3ccncc3)c2)cnc1N` [Example 123, 3-amino-N-methyl-6-(3-{[(pyridin-4-ylmethyl)amino]carbonyl}phenyl)pyrazine-2-carboxamide], the IC50 lay within 0.05 to 1 µM.

With `CNC(=O)c1nc(-c2cccc(NC(=O)c3ccco3)c2)cnc1N` [Example 124, 3-amino-6-{3-[(furan-2-ylcarbonyl)amino]phenyl}-N-methylpyrazine-2-carboxamide], the IC50 lay within 0.05 to 1 µM.

As for `CNC(=O)c1nc(-c2cccc(C(=O)NCc3cccc(Cl)c3)c2)cnc1N` [Example 125, 3-amino-6-[3-({[(3-chlorophenyl)methyl]amino}carbonyl)phenyl]-N-methylpyrazine-2-carboxamide], the IC50 is 0.05 to 1 µM.

For `CNC(=O)c1nc(-c2cccc(C(=O)NCC3CCCCC3)c2)cnc1N` [Example 126, 3-amino-6-(3-{[(cyclohexylmethyl)amino]carbonyl}phenyl)-N-methylpyrazine-2-carboxamide], the IC50 lay in the range of 0.05 to 1 µM.

Turning to `CNC(=O)c1nc(-c2cccc(C(=O)NCC(C)c3ccccc3)c2)cnc1N` (stereo not drawn) [Example 127, 3-amino-N-methyl-6-(3-{[(2-phenylpropyl)amino]carbonyl}phenyl)pyrazine-2-carboxamide], the half-inhibitory concentration (IC50) was 0.05 to 1 µM.

Take `CNC(=O)c1nc(-c2cccc(C(=O)NCc3ccccc3Cl)c2)cnc1N` [Example 128, 3-amino-6-[3-({[(2-chlorophenyl)methyl]amino}carbonyl)phenyl]-N-methylpyrazine-2-carboxamide]: the half-inhibitory concentration (IC50) fell in the range of 0.05 to 1 µM.

With `CNC(=O)c1nc(-c2cccc(C(=O)NCCc3ccccc3Cl)c2)cnc1N` [Example 129, 3-amino-6-[3-({[2-(2-chlorophenyl)ethyl]amino}carbonyl)phenyl]-N-methylpyrazine-2-carboxamide], the IC50 was 0.05 to 1 µM.

As for `CNC(=O)c1nc(-c2cccc(C(=O)NCCc3ccccc3OC)c2)cnc1N` [Example 130, 3-amino-N-methyl-6-{3-[({2-[2-(methyloxy)phenyl]ethyl}amino)carbonyl]phenyl}pyrazine-2-carboxamide], the IC50 fell in the range of 0.05 to 1 µM.

Take `CNC(=O)c1nc(-c2cccc(C(=O)NCCc3ccc(F)cc3)c2)cnc1N` [Example 131, 3-amino-6-[3-({[2-(4-fluorophenyl)ethyl]amino}carbonyl)phenyl]-N-methylpyrazine-2-carboxamide]: the IC50 is 0.05 to 1 µM.

In the case of `CNC(=O)c1nc(-c2cccc(C(=O)NCCc3cccs3)c2)cnc1N` [Example 132, 3-amino-N-methyl-6-[3-({[2-(2-thienyl)ethyl]amino}carbonyl)phenyl]pyrazine-2-carboxamide], the IC50 was 0.05 to 1 µM.

Regarding `CNC(=O)c1nc(-c2cccc(C(=O)NC3CCCCC3)c2)cnc1N` [Example 133, 3-amino-6-{3-[(cyclohexylamino)carbonyl]phenyl}-N-methylpyrazine-2-carboxamide], the IC50 was in the range of 1 to 10 µM.

As for `CNC(=O)c1nc(-c2cccc(C(=O)NCC3CCN(C(=O)OC(C)(C)C)CC3)c2)cnc1N` [Example 134, 1,1-dimethylethyl 4-({[(3-{5-amino-6-[(methylamino)carbonyl]pyrazin-2-yl}phenyl)carbonyl]amino}methyl)piperidine-1-carboxylate], the half-inhibitory concentration (IC50) lay within 0.05 to 1 µM.

With `CNC(=O)c1nc(-c2cccc(C(=O)NCC3CCNCC3)c2)cnc1N` [Example 135, 3-amino-N-methyl-6-(3-{[(piperidin-4-ylmethyl)amino]carbonyl}phenyl)pyrazine-2-carboxamide], the 50% inhibitory concentration (IC50) was in the range of 0.05 to 1 µM.

Take `CNC(=O)c1nc(-c2cccc(-c3noc(-c4ccccc4)n3)c2)cnc1N` [Example 136, 3-amino-N-methyl-6-[3-(5-phenyl-1,2,4-oxadiazol-3-yl)phenyl]pyrazine-2-carboxamide]: the IC50 was in the range of 1 to 10 µM.

In the case of `CNC(=O)c1nc(-c2cccc(-c3noc(Cc4ccccc4)n3)c2)cnc1N` [Example 137, 3-amino-N-methyl-6-{3-[5-(phenylmethyl)-1,2,4-oxadiazol-3-yl]phenyl}pyrazine-2-carboxamide], the IC50 lay within 1 to 10 µM.

As to `CNC(=O)c1nc(-c2cccc(-c3noc(CCc4ccccc4)n3)c2)cnc1N` [Example 138, 3-amino-N-methyl-6-{3-[5-(2-phenylethyl)-1,2,4-oxadiazol-3-yl]phenyl}pyrazine-2-carboxamide], the IC50 is 1 to 10 µM.

`CNC(=O)c1nc(-c2cccc(C(=O)NC(C)(C)C)c2)cnc1N` [Example 139, 3-amino-6-(3-{[(1,1-dimethylethyl)amino]carbonyl}phenyl)-N-methylpyrazine-2-carboxamide]: the IC50 was 1 to 10 µM.

As to `CNC(=O)c1nc(-c2cccc(C(=O)N[C@@H]3c4ccccc4C[C@@H]3O)c2)cnc1N` [Example 140, 3-amino-6-[3-({[(1R,2S)-2-hydroxy-2,3-dihydro-1H-inden-1-yl]amino}carbonyl)phenyl]-N-methylpyrazine-2-carboxamide], the concentration for half-maximal inhibition (IC50) was in the range of 0.05 to 1 µM.

Regarding `CNC(=O)c1nc(-c2cccc(C(=O)N[C@H]3c4ccccc4C[C@H]3O)c2)cnc1N` [Example 141, 3-amino-6-[3-({[(1S,2R)-2-hydroxy-2,3-dihydro-1H-inden-1-yl]amino}carbonyl)phenyl]-N-methylpyrazine-2-carboxamide], the IC50 was in the range of 1 to 10 µM.

Consider `CNC(=O)c1nc(-c2cccc(C(=O)Nc3ccccc3)c2)cnc1N` [Example 142, 3-amino-N-methyl-6-{3-[(phenylamino)carbonyl]phenyl}pyrazine-2-carboxamide], for which the half-inhibitory concentration (IC50) is 1 to 10 µM.

For `CNC(=O)c1nc(-c2cccc(C(=O)N3Cc4ccccc4C3)c2)cnc1N` [Example 143, 3-amino-6-[3-(1,3-dihydro-2H-isoindol-2-ylcarbonyl)phenyl]-N-methylpyrazine-2-carboxamide], the IC50 was in the range of 1 to 10 µM.

Consider `CNC(=O)c1nc(-c2cccc(C(=O)N[C@H](C)c3ccccc3)c2)cnc1N` [Example 144, 3-amino-N-methyl-6-[3-({[(1R)-1-phenylethyl]amino}carbonyl)phenyl]pyrazine-2-carboxamide], for which the concentration for half-maximal inhibition (IC50) is 1 to 10 µM.

In the case of `CNC(=O)c1nc(-c2cccc(C(=O)N[C@@H](C)c3ccccc3)c2)cnc1N` [Example 145, 3-amino-N-methyl-6-[3-({[(1S)-1-phenylethyl]amino}carbonyl)phenyl]pyrazine-2-carboxamide], the IC50 fell in the range of 0.05 to 1 µM.

In the case of `CC[C@@H](NC(=O)c1cccc(-c2cnc(N)c(C(=O)NC)n2)c1)c1ccccc1` [Example 146, 3-amino-N-methyl-6-[3-({[(1R)-1-phenylpropyl]amino}carbonyl)phenyl]pyrazine-2-carboxamide], the half-maximal inhibitory concentration (IC50) was in the range of 1 to 10 µM.

Turning to `CC[C@H](NC(=O)c1cccc(-c2cnc(N)c(C(=O)NC)n2)c1)c1ccccc1` [Example 147, 3-amino-N-methyl-6-[3-({[(1S)-1-phenylpropyl]amino}carbonyl)phenyl]pyrazine-2-carboxamide], the IC50 lay within 1 to 10 µM.

Consider `CNC(=O)c1nc(-c2cccc(C(=O)N[C@@H]3C[C@H]3c3ccccc3)c2)cnc1N` [Example 148, 3-amino-N-methyl-6-[3-({[(1R,2S)-2-phenylcyclopropyl]amino}carbonyl)phenyl]pyrazine-2-carboxamide], for which the IC50 was in the range of 0.05 to 1 µM.

On to `CNC(=O)c1nc(-c2ccc(C(=O)OCc3ccccc3)cc2)cnc1N` [Example 149, phenylmethyl 4-{5-amino-6-[(methylamino)carbonyl]pyrazin-2-yl}benzoate], for which the concentration for half-maximal inhibition (IC50) is ≥ 10 µM.

For the compound `CNC(=O)c1nc(-c2ccc(C(=O)NCc3ccccc3)cc2)cnc1N` [Example 150, 3-amino-N-methyl-6-(4-{[(phenylmethyl)amino]carbonyl}phenyl)pyrazine-2-carboxamide], the IC50 is 1 to 10 µM.
